Test results reported in patent US20230053540A1, “TREATMENT OF LIVER INJURY” (Massachusetts Institute of Technology, priority 2019, published 2023).

System: hepatocytes
Test: Seq-Well scRNA-Seq of hepatocytes after APAP overdose (signature scores, DEG vs untreated)
Type: in vivo, mouse
Details: APAP vs UT, composite DEG

CC(=O)Nc1ccc(O)cc1 [APAP, acetaminophen]
Apoa5 logFC: 0.3232
Apob logFC: 0.5802
Apoc3 logFC: −0.7688
Apoc4 logFC: −1.002
Apom logFC: −0.3024
Aqp9 logFC: −0.3109
Arg1 logFC: 0.3179
Arhgap5 logFC: 0.2952
Arhgef12 logFC: 0.5908
Arl5a logFC: 0.2648
Arl6ip1 logFC: −0.3649
Arpc1b logFC: 0.2597
Arrdc3 logFC: 0.5269
Asgr2 logFC: 0.3064
Asl logFC: 0.5586
Ass1 logFC: −0.3144
Atf5 logFC: 0.329
Atf6 logFC: 0.3778
Atp1a1 logFC: 0.4191
Atp1b1 logFC: 0.3702
Atp2a2 logFC: 0.495
Atp2b1 logFC: 0.3321
Atp5b logFC: 0.2917
Atp5c1 logFC: −0.3476
Atp5g3 logFC: −0.3002
Atp5k logFC: −0.4773
Atp5o logFC: −0.3316
Atp6v1f logFC: −0.2529
Atp11c logFC: 0.2605
Atp13a3 logFC: 0.3945
Atp5h logFC: −0.6398
Atp5d logFC: 0.2501
Atxn7l3b logFC: 0.3062
Azin1 logFC: 0.2701
B2m logFC: −0.418
B4galt5 logFC: 0.4763
BC025446 logFC: 0.2942
BC089597 logFC: 0.2622
Baat logFC: −0.3086
Bach1 logFC: 0.8323
Bbox1 logFC: −0.4082
Bche logFC: 0.3134
Bckdha logFC: −0.35
Bcl2l1 logFC: 0.7751
Bet1 logFC: −0.2966
Bfar logFC: 0.2903
Bhmt2 logFC: −0.3114
Bhmt logFC: −0.5202
Birc6 logFC: 0.3444
Bnip3 logFC: 0.4032
Bola3 logFC: −0.3689
Bphl logFC: −0.4075
Bptf logFC: 0.3245
Brap logFC: 0.3492
Brd2 logFC: 0.5715
Bsg logFC: −0.3152
Bst2 logFC: −0.3156
Btaf1 logFC: 0.2755
Bzw1 logFC: 0.2948
C1qb logFC: 0.6817
C3 logFC: 0.4495
C4b logFC: 0.2833
C8b logFC: −0.3602
C8g logFC: −0.6545
C9 logFC: −0.4271
C130074G19Rik logFC: −0.3563
C230081A13Rik logFC: 0.427
Cald1 logFC: 0.3737
Calr logFC: 0.5551
Camk2n1 logFC: 0.2501
Caprin1 logFC: 0.2628
Car3 logFC: −1.036
Car5a logFC: −0.3088
Cars logFC: 0.3158
Cast logFC: 0.4009
Cbr1 logFC: 0.2847
Ccbl1 logFC: −0.3649
Ccl6 logFC: 0.7891
Ccs logFC: −0.4267
Cd1d1 logFC: 0.2912
Cd5l logFC: 0.6935
Cd14 logFC: 0.3621
Cd163 logFC: 0.4408
Cdkn1a logFC: 1.215
Cebpa logFC: −0.3916
Cela1 logFC: −0.2723
Cep85l logFC: 0.2779
Cers6 logFC: 0.5328
Ces1b logFC: 0.373
Ces1f logFC: −0.3126
Ces3a logFC: −0.5253
Ces1d logFC: −0.4289
Cfhr1 logFC: −0.3253
Chac2 logFC: −0.2865
Chd1 logFC: 0.3788
Chka logFC: 1.375
Chpt1 logFC: 0.3566
Cideb logFC: −0.3684
Cidec logFC: 0.2994
Cisd1 logFC: −0.3727
Cldn2 logFC: −0.2511
Cldn3 logFC: −0.3145
Clec4f logFC: 1.108
Clec4d logFC: 0.2636
Cnpy2 logFC: −0.3729
Coa6 logFC: −0.4114
Commd6 logFC: −0.3645
Comt logFC: −0.3684
Copb2 logFC: 0.2839
Copz1 logFC: 0.2577
Coq9 logFC: −0.3479
Coro1c logFC: 0.3067
Cox4i1 logFC: −0.516
Cox5a logFC: 0.4024
Cox6a1 logFC: −0.4872
Cox6b1 logFC: −0.362
Cox6c logFC: −0.8443
Cox8a logFC: 0.4417
Cpne3 logFC: 0.258
Cpt1a logFC: 0.3729
Crat logFC: 0.2556
Creb3l2 logFC: 0.4272
Creb3l3 logFC: 0.2757
Creg1 logFC: 0.2768
Creld2 logFC: 0.6087
Csad logFC: −0.5598
Ctage5 logFC: 0.3287
Cth logFC: −0.5109
Ctnnb1 logFC: 0.2957
Ctsa logFC: 0.252
Ctsb logFC: 0.5213
Ctsh logFC: 0.3245
Ctss logFC: 0.7642
Cvp2e1 logFC: −2.319
Cxcl1 logFC: 0.4498
Cxcl12 logFC: −0.3058
Cxcr2 logFC: 0.4023
Cyp4f14 logFC: −0.2959
Cyp4f15 logFC: −0.2998
Cyp27a1 logFC: −0.3735
D10Jhu81e logFC: −0.3957
D10Wsu102e logFC: 0.5878
D17Wsu92e logFC: 0.372
Dbi logFC: −0.7164
Ddah1 logFC: −0.312
Ddb1 logFC: 0.2778
Ddc logFC: −0.3608
Ddx6 logFC: 0.4443
Ddx27 logFC: 0.2522
Decr1 logFC: 0.4664
Decr2 logFC: 0.4189
Dennd5b logFC: 0.2935
Deptor logFC: 0.2606
Derl2 logFC: −0.3317
Dgat2 logFC: −0.3433
Dhcr24 logFC: 0.4238
Dhdh logFC: −0.3348
Dhrs4 logFC: −0.3321
Dhx9 logFC: 0.3504
Dmgdh logFC: 0.2658
Dnajb9 logFC: 0.2586
Dnajb11 logFC: 0.3154
Dnajc3 logFC: 0.4564
Dnajc19 logFC: −0.316
Dusp5 logFC: 0.2964
Dync1h1 logFC: 0.3796
Dync1li1 logFC: 0.2624
Ebp logFC: −0.3553
Ech1 logFC: −0.4291
Echs1 logFC: −0.3316
Eci1 logFC: −0.2764
Eci2 logFC: 0.311
Edem1 logFC: 0.2869
Edf1 logFC: −0.3817
Eef1a1 logFC: 0.4393
Efhd2 logFC: 0.5838
Egfr logFC: 0.505
Egr1 logFC: 0.5846
Ehhadh logFC: −0.2505
Ei24 logFC: 0.2573
Eif4b logFC: 0.3682
Eif4g2 logFC: 0.5597
Eif5 logFC: 0.5763
Ell2 logFC: 0.4172
Elovl2 logFC: 0.4522
Elovl3 logFC: −0.676
Ephx2 logFC: −0.3693
Eprs logFC: 0.3701
Erbb2ip logFC: 0.3332
Erp44 logFC: 0.2795
Esd logFC: −0.2808
Ethe1 logFC: −0.3334
Etnppl logFC: 0.4967
Ets2 logFC: 0.6956
F2 logFC: 0.3213
F9 logFC: 0.2568
F10 logFC: 0.2791
F12 logFC: 0.2567
Fah logFC: 0.3025
Fam25c logFC: −0.2977
Fam107b logFC: 0.4633
Fam120a logFC: 0.28
